Test results taken from patent publication US12460243B2, “Mass spectrometry determination of the sensitivity or resistance of bacteria to an antibiotic” (priority 2019, dated 2025).
Values joined by “and” are separate entries in the source; they are usually repeats but may differ in a detail not shown here. Equal entries are not always repeated. Bridge positions count the residues as written; N and C are the ends. Square brackets hold non-standard residues; d marks the D form. Peptide text beside a SMILES is read from it. * marks the point of attachment. Heptanoyl(6-Me) = CC(C)CCCCC(=O)*; Dab = NCC[C@H](N)C(=O)O

Experiments:
Type in all cases: cell-based
Escherichia coli [1] = test: MALDI-TOF detection of released characteristic proteins, 10 min at 50° C., filtration (examples V, VI); settings: for Aire sous la courbe des pics observés, Protéine chaperonne de stress acide HdeB / Aire sous la courbe des pics observés, Protéine ribosomique 50S L29 / Aire sous la courbe des pics observés, Protéine ribosomique 50S L31 / Aire sous la courbe des pics observés, Protéine ribosomique 50S L33 / Aire sous la courbe des pics observés, SPIRAP (Stationary-Phase-Induced Ribosome-Associated Protein) / Ratio par protéine HdeB/Colistine / Ratio par protéine L29/Colistine / Ratio par protéine L31/Colistine / Ratio par protéine L33/Colistine / Ratio par protéine SIRAP/Colistine / Somme des ratios / sensitivity or resistance to colistin by MALDI-TOF: colistin 2.5 mg/ml, 10 min 50° C.; for classification by sum of the ratios against threshold: threshold 0.30
Experimental: (§1) The tests were carried out using the following steps: • preparing a suspension of microorganism at 2 McF in water (suspension medium, bioMérieux reference 70700), • preparing a solution of colistin sulfate (Sigma reference C4461) at a concentration of 2× in pure water (taking into account the colistin titer indicated by the manufacturer).
In the context of this example, the tests were carried out with the method of the present invention to determine the sensitivity or resistance of several bacteria of several strains such as in example V and comprising the following steps: • measuring the intensity of each peak observed, • finding a ratio between the sum of the intensities of the protein peaks of the microorganism and at least 1 peak of colistin. • determining the status, resistant or sensitive to colistin, as a function of the sum of the ratios obtained and of a threshold fixed for each species. • a resistant microorganism will have a low ratio and a sensitive microorganism will have a high ratio.
Firstly, the same strains of E. coli (EC_S10, EC_S15, EC_R16, EC_R17), used previously, are studied and the proteins characteristic of the species E. coli are analyzed. They are the following proteins: the stationary-phase-induced ribosome-associated protein (SPIRAP), the acid stress chaperone HdeB and the 50S ribosomal proteins L29, L31 and L33.

Pseudomonas aeruginosa = test: MALDI-TOF detection of released characteristic proteins, 10 min at 50° C., filtration (example V); settings: colistin 20 μg/ml, 10 min 50° C.
Experimental: as §1
(§2) The strains of A. baumannii (AB_S044, AB_S045, AB_S046, AB_R-E105) and of Pseudomonas aeruginosa (PA_S062, PA_SE64, PA_RE66, PA_RE68) are analyzed with the protocol described in example V. Thus, they are incubated in the presence of 20 μg/ml of colistin.

Acinetobacter baumannii = test: as above; settings: colistin 20 μg/ml, 10 min 50° C.
Experimental: as §1, §2

Escherichia coli [2] = test: MALDI-TOF detection of characteristic proteins released after incubation with colistin (examples II-IV, centrifugation); settings: colistin 2.5 mg/ml
Experimental: This test was carried out using the following steps: • preparing a suspension of strains EC_S and EC_R of E. coli at 1 McFarland (McF) in water (suspension medium, bioMérieux reference 70700), • preparing a solution of colistin sulfate (Sigma, reference C4461) at a concentration of 5 mg/ml in pure water (taking into account the colistin titer indicated by the manufacturer), • mixing 250 μl of each suspension with 250 μl of colistin to obtain a solution of microorganism at 0.5 McF and at a concentration of 2.5 mg/ml of colistin, • homogenizing using a vortex for 5 seconds, • incubating the mixture for 4 hours at 37° C., • homogenizing using a vortex for 5 seconds, • centrifuging at 4700 rev/min (1500 g) for 5 minutes, • depositing 1 μl of the supernatant on a disposable target (bioMérieux reference 410893), • depositing 1 μl of HCCA matrix (bioMérieux, reference 411071) on the drop of supernatant, • analyzing the sample by MALDI-TOF spectrometry on VITEK-MS Plus (bioMérieux) with a method suitable for microbiology, i.e. with a positive ionization mode and a mass range from 2000 to 20 000 Th. • accumulating 100 profiles from 10 firings and comparing the data with the data contained in the databases for E. coli, • observing the presence or absence of protein peaks characteristic of E. coli. • determining the sensitivity to colistin if proteins characteristic of E. coli are detected or the resistance if no protein of E. coli is detected.
The E. coli strains S and R16 are analyzed with the same protocol as in example II apart from the incubation time of 30 minutes at 37° C. The S strain is sensitive to colistin and the R16 strain is resistant to colistin.
The same E. coli strains R16 and S are analyzed with the same protocol as in example III apart from incubation at 50° C.

CC(C)CCCCC(=O)N[C@@H](CCN)C(=O)N[C@H](C(=O)N[C@@H](CCN)C(=O)N[C@H]1CCNC(=O)[C@H]([C@@H](C)O)NC(=O)[C@H](CCN)NC(=O)[C@H](CCN)NC(=O)[C@H](CC(C)C)NC(=O)[C@@H](CC(C)C)NC(=O)[C@H](CCN)NC1=O)[C@@H](C)O [colistin] ({Heptanoyl(6-Me)}-[Dab]T[Dab][Dab][Dab][dL]L[Dab][Dab]T; lactam 4-C)
Aire sous la courbe des pics observés, Protéine chaperonne de stress acide HdeB (Escherichia coli [1]; strain EC-R16): 0.00 unité arbitraire
Aire sous la courbe des pics observés, Protéine ribosomique 50S L29 (Escherichia coli [1]; strain EC-R16): 0.00 unité arbitraire
Aire sous la courbe des pics observés, Protéine ribosomique 50S L31 (Escherichia coli [1]; strain EC-R16): 0.00 unité arbitraire
Aire sous la courbe des pics observés, Protéine ribosomique 50S L33 (Escherichia coli [1]; strain EC-R16): 0.00 unité arbitraire
Aire sous la courbe des pics observés, SPIRAP (Stationary-Phase-Induced Ribosome-Associated Protein) (Escherichia coli [1]; strain EC-R16): 0.00 unité arbitraire
Ratio par protéine HdeB/Colistine (Escherichia coli [1]; strain EC-R16): 0.00
Ratio par protéine L29/Colistine (Escherichia coli [1]; strain EC-R16): 0.00
Ratio par protéine L31/Colistine (Escherichia coli [1]; strain EC-R16): 0.00
Ratio par protéine L33/Colistine (Escherichia coli [1]; strain EC-R16): 0.00
Ratio par protéine SIRAP/Colistine (Escherichia coli [1]; strain EC-R16): 0.00
Somme des ratios (Escherichia coli [1]; strain EC-R16): 0.00
classification by sum of the ratios against threshold (Escherichia coli [1]; strain EC-R16): resistant (the strains whose sum of the ratios is strictly below 0.30 will be considered as resistant)
Aire sous la courbe des pics observés, Protéine chaperonne de stress acide HdeB (Escherichia coli [1]; strain EC-R17): 0.00 unité arbitraire
Aire sous la courbe des pics observés, Protéine ribosomique 50S L29 (Escherichia coli [1]; strain EC-R17): 0.00 unité arbitraire
Aire sous la courbe des pics observés, Protéine ribosomique 50S L31 (Escherichia coli [1]; strain EC-R17): 0.00 unité arbitraire
Aire sous la courbe des pics observés, Protéine ribosomique 50S L33 (Escherichia coli [1]; strain EC-R17): 0.00 unité arbitraire
Aire sous la courbe des pics observés, SPIRAP (Stationary-Phase-Induced Ribosome-Associated Protein) (Escherichia coli [1]; strain EC-R17): 0.00 unité arbitraire
Ratio par protéine HdeB/Colistine (Escherichia coli [1]; strain EC-R17): 0.00
Ratio par protéine L29/Colistine (Escherichia coli [1]; strain EC-R17): 0.00
Ratio par protéine L31/Colistine (Escherichia coli [1]; strain EC-R17): 0.00
Ratio par protéine L33/Colistine (Escherichia coli [1]; strain EC-R17): 0.00
Ratio par protéine SIRAP/Colistine (Escherichia coli [1]; strain EC-R17): 0.00
Somme des ratios (Escherichia coli [1]; strain EC-R17): 0.00
classification by sum of the ratios against threshold (Escherichia coli [1]; strain EC-R17): resistant (the strains whose sum of the ratios is strictly below 0.30 will be considered as resistant)
Ratio par protéine HdeB/Colistine (Escherichia coli [1]; strain EC-S10): 0.15
Ratio par protéine L33/Colistine (Escherichia coli [1]; strain EC-S10): 0.15
Somme des ratios (Escherichia coli [1]; strain EC-S10): 0.30 and 0.39
classification by sum of the ratios against threshold (Escherichia coli [1]; strain EC-S10): sensitive (the strains whose sum of the ratios is greater than or equal to 0.30 will be considered as sensitive)
Aire sous la courbe des pics observés, Protéine chaperonne de stress acide HdeB (Escherichia coli [1]; strain EC-S15): 97.46 unité arbitraire and 60.9 unité arbitraire
Aire sous la courbe des pics observés, Protéine ribosomique 50S L33 (Escherichia coli [1]; strain EC-S15): 86.71 unité arbitraire and 68.12 unité arbitraire
Aire sous la courbe des pics observés, SPIRAP (Stationary-Phase-Induced Ribosome-Associated Protein) (Escherichia coli [1]; strain EC-S15): 0.00 unité arbitraire
Ratio par protéine HdeB/Colistine (Escherichia coli [1]; strain EC-S15): 0.21
Ratio par protéine L29/Colistine (Escherichia coli [1]; strain EC-S15): 0.02 and 0.01
Ratio par protéine L31/Colistine (Escherichia coli [1]; strain EC-S15): 0.02 and 0.04
Ratio par protéine L33/Colistine (Escherichia coli [1]; strain EC-S15): 0.26 and 0.19
Somme des ratios (Escherichia coli [1]; strain EC-S15): 0.55 and 0.44
classification by sum of the ratios against threshold (Escherichia coli [1]; strain EC-S15): sensitive (the strains whose sum of the ratios is greater than or equal to 0.30 will be considered as sensitive)
sensitivity or resistance to colistin by MALDI-TOF (Escherichia coli [1]; strain EC_R16): resistant
sensitivity or resistance to colistin by MALDI-TOF (Escherichia coli [1]; strain EC_R17): resistant
sensitivity or resistance to colistin by MALDI-TOF (Escherichia coli [1]; strain EC_S10): sensitive
sensitivity or resistance to colistin by MALDI-TOF (Escherichia coli [1]; strain EC_S15): sensitive
sensitivity or resistance to colistin by MALDI-TOF (Pseudomonas aeruginosa; strain PA_RE66): resistant
sensitivity or resistance to colistin by MALDI-TOF (Pseudomonas aeruginosa; strain PA_RE68): resistant
sensitivity or resistance to colistin by MALDI-TOF (Pseudomonas aeruginosa; strain PA_S062): sensitive
sensitivity or resistance to colistin by MALDI-TOF (Pseudomonas aeruginosa; strain PA_SE64): sensitive
sensitivity or resistance to colistin by MALDI-TOF (Acinetobacter baumannii; strain AB_R-E105): resistant
sensitivity or resistance to colistin by MALDI-TOF (Acinetobacter baumannii; strain AB_S044): sensitive
sensitivity or resistance to colistin by MALDI-TOF (Acinetobacter baumannii; strain AB_S045): sensitive
sensitivity or resistance to colistin by MALDI-TOF (Acinetobacter baumannii; strain AB_S046): sensitive
sensitivity or resistance to colistin by MALDI-TOF (Escherichia coli [2]; strain EC_R, 4 h at 37° C.): resistant
sensitivity or resistance to colistin by MALDI-TOF (Escherichia coli [2]; strain EC_S, 4 h at 37° C.): sensitive
sensitivity or resistance to colistin by MALDI-TOF (Escherichia coli [2]; strain R16, 30 min at 37° C.): resistance
sensitivity or resistance to colistin by MALDI-TOF (Escherichia coli [2]; strain R16, 30 min at 50° C.): resistance
sensitivity or resistance to colistin by MALDI-TOF (Escherichia coli [2]; strain S, 30 min at 37° C.): sensitive
sensitivity or resistance to colistin by MALDI-TOF (Escherichia coli [2]; strain S, 30 min at 50° C.): sensitivity
